In data set [1] the test system is Mycobacterium tuberculosis H37Rv. Put plainly: microbe, parasite or virus in culture. As to conditions: for IC90: read-out: Anti-tubercular activity M. tuberculosis (H37Rv) IC90; for IC50: SD in brackets, read-out: Anti-tubercular activity M. tuberculosis (H37Rv) IC50 (SD). In kind it is cell-based.
Data set [2] in a line: MCF-10A MTT cytotoxicity screening. In kind it is cell-based. As to conditions: human, MCF-10A normal breast (mammary epithelial) cells, quadruplicate, read-out: Cytotoxicity MCF10A normal breast cells IC50. The protocol:
(§1) The cytotoxicity of compounds towards eukaryotic cells was determined using human liver cells (HepG2), non-tumorigenic human mammary epithelial cells (MCF-10A), and breast cancer cells (MDA-MB-468).
(§2) Cells were purchased from the American Type Culture Collection (Manassas, VA, USA). MDA-468 cells were grown in RPMI-1640 medium with 10% (v/v) heat-inactivated foetal calf serum and L-glutamine (2 mM) without phenol red. MCF-10A cells were grown in Dulbecco’s modified Eagle’s medium/ Ham’s F-12 medium (1:1) with 5% (v/v) heat-inactivated foetal calf serum, epidermal growth factor (20 ng/mL), insulin (10 µg/mL), and hydrocortisone (500 ng/mL). Cells were maintained at 37 °C, 5% CO2 / 95% air with 100% humidity and passaged every 2–3 days using trypsin EDTA solution (0.25% w/v). Adhered cells at sub confluence were harvested for experimental use. The medium was aspirated and discarded, and trypsin-EDTA solution (1% w/v, 1 mL) was added to the cells. After 30 s this was aspirated and immediately replaced by a further 1 mL of trypsin-EDTA solution. The cells were incubated at 37 °C for approximately 5 min or until the cells were visibly non-adherent. The resultant cell suspension was placed in a 25 mL sterile universal container with 10 mL of fresh medium followed by centrifugation (3 min, 3000 rpm, and 4 °C). Old medium was aspirated and replaced with 10 mL of fresh medium. To determine the density of cells in suspension, an aliquot (100 µL) was added to a trypan-blue solution (0.4% w/v, 100 µL), and the number of viable cells were determined using a Neubauer haemocytometer. The cell suspension was diluted with relevant medium to give a cell count of 2 × 10^3 cells per mL. Aliquots (100 µL) were dispensed into sterile 96-well microtitre flat-bottomed plates. For the MDA-468 and MCF-10A cell lines the plates were incubated at 37 °C, 5% CO2/95% air with 100% humidity for 24 h prior to the addition of test compounds. Test compounds were added within 30 min into the wells from a 100 mM stock solution in DMSO and serially diluted to give final concentrations of […], 0.01, 0.003, 0.001, and 0.0003 µM. […] The cells were allowed to grow for 96 h at 5%, CO2, 37 °C to give 80–90% confluence in the control wells, after which 50 µL of MTT (3-[4,5 dimethylthiazol-2-yl]-2,5-diphenyl tetrazolium bromide, 2 mg mL^−1) in sterile phosphate buffer was added to each well and the plates were further incubated for 2 h. All medium was aspirated, and the formazan precipitate generated by viable cells was solubilised by 150 µL of DMSO. All the plates were vortexed, and the absorbance at 540 nm was determined using a Molecular Devices SpectraMax M5 plate reader. Results were expressed as a percentage of the control value versus the negative logarithm of the molar drug concentration range using Graph Pad Prism. Relative toxicities of each compound within each cell line were expressed as 50% of growth inhibition (IC50). All determinations were carried out in quadruplicate.

The nature of data set [3]: MDA-468 MTT cytotoxicity screening. It is filed as cell-based. As to conditions: human, MDA-MB-468 (MDA468) breast cancer cells, quadruplicate. As to the method: as §1, §2
Data set [4] in a line: HepG2 cytotoxicity screening (CellTiter-Glo). It is filed as cell-based. Particulars: human, HepG2 cells; 50% decrease in viable cells after 72 h. The protocol:
as §1
HepG2 cells were incubated with compounds for 72 h in medium containing either glucose or galactose, and cell viability was measured. The IC50 was determined as the concentration of compound causing a 50% decrease in viable cells after 72 h. Compounds were prepared as 10-point three-fold serial dilutions in DMSO. The highest concentration of compound tested was 100 µM where compounds were soluble in DMSO at 10 mM. […] HepG2 cells were cultured in complete DMEM (recipe: DMEM medium, 1X penicillin-streptomycin solution, 2 mM Corning Glutogro supplement, 1 mM sodium pyruvate, 10% v/v Fetal Bovine Serum), inoculated into 384-well assay plates and incubated for 24 h at 37 °C, 5% CO2. Compounds were added and cells were cultured for a further 72 h. The final DMSO concentration was 1%. Cell viability was determined using the CellTiter-Glo® Luminescent Cell Viability Assay (Promega, Madison, WI, USA) and measuring relative luminescent units (RLU). The dose-response curve was fitted using the Levenberg–Marquardt algorithm. The IC50 was defined as the compound concentration that produced a 50% decrease in viable cells. Each run included staurosporine as a control.
A general note: In ATP-based viability assays light output follows the ATP content of the culture.

In data set [5] the test system is MDA468 breast cancer cells. On the set-up: method as in PMID 29332599. Particulars: previously reported value ref 12; read-out: Cytotoxicity MDA468 breast cancer cells IC50; cited from earlier work.
The mark [6] stands for this setting: Mycobacterium tuberculosis, H37RV, 120 h, 5-day incubation, […].

“Also recorded” adds a separate entry of the source. Like-named read-outs stand apart in the source and are kept apart here.

The term IC90 denotes the concentration needed for an effect of 90%. In general, IC50 refers to the concentration at which inhibition is half-maximal. Consider `CO[C@H]1/C=C/O[C@@]2(C)Oc3c(C)c(O)c4c(O)c(c(/C=N/N5CCN(C)CC5)c(O)c4c3C2=O)NC(=O)/C(C)=C\C=C\[C@H](C)[C@H](O)[C@@H](C)[C@@H](O)[C@@H](C)[C@H](OC(C)=O)[C@@H]1C` [Rifampicin, reference compound], for which, in data set [1] (setting [6]), the IC90 came out at 0.0087 µM and the concentration for half-maximal inhibition (IC50) came out at 0.0044 µM.
As to `COc1ccc(/C=C\c2cc(OC)c(OC)c(OC)c2)cc1O` [Combretastatin A-4, reference compound], the figures for the IC50 at 96 h in data set [2] and in data set [3] were 0.0016 µM and 0.003 µM, respectively.
For the compound `COc1ccccc1C(=O)/C=C/c1ccc(Br)cc1` [Compound 22], in data set [1] (setting [6]), the concentration for an effect of 90% (IC90) amounted to 59 µM and the IC50 is 44.5 µM. Also, the half-inhibitory concentration (IC50) at 72 h in data set [4] came to 13 µM.
Taken in the same sequence, the figures for `O=C(/C=C/c1cccnc1)c1ccc(Cl)cc1` [Compound 15, (E)-1-(4-chlorophenyl)-3-(pyridin-3-yl)prop-2-en-1-one] were 77 µM, 24 µM and 11 µM.
Taken in the same sequence, the figures for `O=C(/C=C/c1ccc(Br)cc1)c1ccccc1O` [Compound 24, (E)-3-(4-bromophenyl)-1-(2-hydroxyphenyl)prop-2-en-1-one] were 97 µM, over 100 µM and 14 µM.
`O=C(/C=C/c1cccnc1)c1c2ccccc2cc2ccccc12` [Compound 19]: in data set [1] (setting [6]), the IC90 was found to be 48 µM and the IC50 amounted to 10 µM. In data set [4], this compound had a 50% inhibitory concentration (IC50) at 72 h of 2.7 µM. For the same compound, the IC50 at 96 h in data set [2] amounted to 4.4 µM. This compound also returned an IC50 at 96 h in data set [3] of 0.3 µM.
In the case of `COc1cc(C(=O)/C=C/c2cccnc2)cc(OC)c1OC` [Compound 16, (E)-3-(pyridin-3-yl)-1-(3,4,5-trimethoxyphenyl)prop-2-en-1-one], in data set [1] (setting [6]), the IC90 worked out at 59 µM and the IC50 was found to be 19 µM. The compound also returned an IC50 at 72 h in data set [4] of 2 µM. Moreover, the IC50 at 96 h in data set [2] worked out at 1.5 µM. In data set [3], the IC50 at 96 h stood at 0.7 µM.
On to `COc1cccc(C(=O)/C=C/c2ccc(Cl)cc2)c1` [Compound 26, (E)-3-(4-chlorophenyl)-1-(3-methoxyphenyl)prop-2-en-1-one], for which the IC90 in data set [1] (5-day incubation, […]) amounted to 28 µM. In addition, in data set [1] (setting [6]), the IC90 is at least 28 µM and the half-maximal inhibitory concentration (IC50) came to 20 µM. Half-maximal inhibition in data set [4] (IC50 at 72 h) was put at 13 µM.
`O=C(/C=C/c1cccnc1)c1ccc(O)cc1` [Compound 17]: the “Anti-tubercular activity (in words)” value in data set [1] (M. tuberculosis H37Rv) is listed as “abolished”. Besides, the IC90 in data set [1] (setting [6]) is over 100 µM. For the same compound, the IC50 in data set [1] (setting [6]) is over 100 µM. The compound also gave an IC50 at 72 h in data set [4] of over 100 µM. Further, the IC50 at 96 h in data set [2] is over 100 µM; in data set [3] it was 30 µM.
Consider `Oc1ccccc1C1=NNC(c2ccc(Br)cc2)C1` (stereo not drawn) [Compound 31, 2-(5-(4-bromophenyl)-4,5-dihydro-1H-pyrazol-3-yl)phenol], for which, in data set [1] (setting [6]), the concentration for an effect of 90% (IC90) is 34 µM and the IC50 turned out to be 23 µM. The IC50 at 72 h in data set [4] worked out at 24.5 µM.
For `O=C(/C=C/c1cccnc1)c1ccccc1O` [Compound 18, (E)-1-(2-hydroxyphenyl)-3-(pyridin-3-yl)prop-2-en-1-one], in data set [1] (M. tuberculosis H37Rv), the “Anti-tubercular activity (in words)” value is “abolished”. Moreover, in data set [1] (setting [6]), the IC90 was over 100 µM and the IC50 is over 100 µM. Half-maximal inhibition in data set [4] (IC50 at 72 h) required 22 µM. Besides, the half-maximal inhibitory concentration (IC50) at 96 h in data set [2] is 16 µM. Besides, in data set [3], the midpoint of inhibition, the IC50 at 96 h, lay at 8 µM.
On to `O=C(/C=C/c1cn(-c2ccccc2)nc1-c1ccccc1)c1ccccc1O` [Compound 27, (E)-3-(1,3-diphenyl-1H-pyrazol-4-yl)-1-(2-hydroxyphenyl)prop-2-en-1-one], for which, in data set [1] (5-day incubation, […]), the IC90 is over 100 µM. Also, in data set [1] (setting [6]), the IC90 is 97 to 100 µM and the concentration for half-maximal inhibition (IC50) was over 100 µM. Besides, it took 74 µM to reach half-maximal inhibition in data set [4] (IC50 at 72 h).
As to `O=C(/C=C/c1ccc(Cl)cc1)c1ccccc1O` [Compound 23, (E)-3-(4-chlorophenyl)-1-(2-hydroxyphenyl)prop-2-en-1-one], the IC90 in data set [1] (5-day incubation, […]) was over 100 µM; in data set [1] (setting [6]), 97 to 100 µM. In addition, it took 25 µM to reach half-maximal inhibition in data set [4] (IC50 at 72 h).
Consider `O=C(/C=C/c1cccc(Br)c1)c1cccnc1` [Compound 28, (E)-3-(3-bromophenyl)-1-(pyridin-3-yl)prop-2-en-1-one], for which, in data set [1] (setting [6]), the IC90 was 65 µM. In addition, the IC50 at 96 h in data set [2] was 5.2 µM; in data set [3], 0.7 µM.
On to `Oc1ccccc1C1=NNC(c2ccc(Cl)cc2)C1` (stereo not drawn) [Compound 30, 2-(5-(4-chlorophenyl)-4,5-dihydro-1H-pyrazol-3-yl)phenol], for which, in data set [1] (setting [6]), the IC50 turned out to be 23 µM. Also, in data set [4], inhibition was half-maximal at 19.5 µM (IC50 at 72 h).
In the case of `COc1cc(C(=O)/C=C/c2ccc3c(c2)OCO3)cc(OC)c1OC` [Compound 2], in data set [1], the “Anti-tubercular activity (in words)” value is “did not exhibit anti-tubercular activity; also recorded: no antitubercular activity”. Further, in data set [1] (Mycobacterium tuberculosis, H37RV, 120 h), the IC90 was over 100 µM. For the same compound, the 50% inhibitory concentration (IC50) at 96 h in data set [2] is 2.3 µM. Besides, in data set [5], the IC50 is 0.006 µM.
As for `Oc1ccccc1C1=NNC(c2cn(-c3ccccc3)nc2-c2ccccc2)C1` (stereo not drawn) [Compound 29, 2-(1′,3′-diphenyl-3,4-dihydro-1′H,2H-[3,4′-bipyrazol]-5-yl)phenol], the “Fold more active than parent compound 27 (IC50 H37Rv)” value in data set [1] (29 versus 27) came to 10 fold. In data set [1] (setting [6]), the IC90 is over 25 µM and the half-maximal inhibitory concentration (IC50) was 11 µM. The compound further returned an IC50 at 72 h in data set [4] of 46.5 µM.
`O=C(/C=C/c1cccnc1)c1ccc2ccc3cccc4ccc1c2c34` [Compound 20, (E)-1-(pyren-1-yl)-3-(pyridin-3-yl)prop-2-en-1-one]: the IC90 in data set [1] (setting [6]) was found to be 22 µM. The 50% inhibitory concentration (IC50) in data set [1] (setting [6]) turned out to be 8.8 µM. Further, the IC50 at 72 h in data set [4] was 1.8 µM. The results for the IC50 at 96 h in data set [2] and in data set [3] were 2 µM and 4 µM, respectively.
As for `COc1cccc(C(=O)/C=C/c2ccc(Br)cc2)c1` [Compound 25, (E)-3-(4-bromophenyl)-1-(3-methoxyphenyl)prop-2-en-1-one], in data set [1] (setting [6]), the IC90 stood at 28 µM and the IC50 amounted to 22 µM. Moreover, the IC50 at 72 h in data set [4] was determined as 14 µM.
Take `O=C(/C=C/c1cccnc1)c1ccc(-c2ccccc2)cc1` [Compound 21, (E)-1-([1,1′-biphenyl]-4-yl)-3-(pyridin-3-yl)prop-2-en-1-one]: in data set [1] (setting [6]), the IC90 stood at 8.9 µM and the IC50 was 3.9 µM. In data set [4], this compound displayed an IC50 at 72 h of 4.5 µM. Further, the IC50 at 96 h in data set [2] came out at 7 µM. Further, the IC50 at 96 h in data set [3] came out at 3.5 µM.
For `O=C(/C=C/c1cccnc1)c1ccc(Cl)c(Cl)c1` [Compound 14, (E)-1-(3,4-dichlorophenyl)-3-(pyridin-3-yl)prop-2-en-1-one], in data set [1] (setting [6]), the IC90 was found to be 28 µM and the IC50 came out at 12 µM. In data set [4], this compound displayed an IC50 at 72 h of 2.5 µM.

Values taken from article PMC11478287, “Design and Synthesis of Pyridyl and 2-Hydroxyphenyl Chalcones with Antitubercular Activity” (Molecules, 2024).
